This is an account of results in US9763444B2, “Compositions and methods for repelling blood-sucking and biting insects, ticks and mites” (The United States of America, as represented by the …, priority 2013, dated 2017).

Molecules are shown by their SMILES.

For assay [1], the system named is Ae. aegypti. Description: Minimum Effective Dosage (MED) test on treated cloth, mosquito repellency. It counts as in vivo, Aedes aegypti. As to conditions: for Ae. aegypti Minimum Effective Dosage, M9: human subject M9; for Ae. aegypti Minimum Effective Dosage, M10: human subject M10. As to the method:
Bioassay for mosquito repellent activity: Repellency screening test for experimental chemicals were carried out to identify candidates that might be useful repellents. The repellent efficacy was compared to that of the standard repellent, DEET. Experimental compounds were assessed in one of two ways: (1) a range of concentration was evaluated to determine the minimum effective dosage (MED) which was the concentration threshold of where the repellent began to fail and allowed bites, or (2) a predetermined concentration of each repellent was applied to cloth and the activity was evaluated over several days (or in some cases months) (Katritzky, A. R., et al., Proc. Nat. Acad. Sci. (US), 105, 7359-7364 (2008); Katritzky, A. R., et al., Journal of Med. Entomol., 47: 924-938 (2010)). When conducting assays for repellency, a failure point was also predetermined for those measurements. Since experiments described herein used about 500 female mosquitoes per test, the failure point was set at 1% (equal to 5 bites) received during a test interval. From 3 to 5 volunteers participated in the screening of each set of chemicals.
(§1) Minimum Effective Dosage (MED) Test: The MED bioassays on treated cloth were a method of screening to determine the minimum amount of a repellent needed to prevent bites. Experimental compounds were prepared in solution by combining 0.15 g of experimental chemical with 2 mL of acetone in a 7.1 mL screwtop glass vial. This solution was then serially diluted to obtain nine concentrations when applied on to the cloth patch: 1.5, 0.75, 0.375, 0.187, 0.094, 0.047, 0.023, 0.011, and 0.006 mg/cm^2. The standard N,N-diethyl-3-methylbenzamide (DEET) was also tested at the same concentration levels to serve as a control and a comparison for relative repellency. A 50 cm^2 (5 cm×10 cm) patch of muslin cloth was rolled lengthwise and placed into each of the glass vials and scaled with a screwtop so it soaked up the solution. Just prior to the experiment, the pieces of treated cloth were removed from the vials, affixed to card stock tabs (5 cm×3 cm) with staples, and hung with masking tape on a rack to dry and allow acetone to evaporate. Volunteers wore a latex glove over their hands, a nylon stocking over their arm, and then wrapped a plastic Velcro-sealed sleeve over their entire forearm with a 32 cm^2 (4 cm×8 cm) window cut-out to allow mosquitoes to bite through. The nylon stocking acted as a barrier between the dried cloth and the skin, an additional precaution with experimental compounds. Dried cloth patches were stretched across the window in the plastic sleeve and held in place with masking tape. Volunteers placed their sleeve-covered arms into a screened cage for a one minute period with approximately 500 female Ae. aegypti mosquitoes that had been preselected for host-seeking behavior using a draw box (Posey, K. H., and C. E. Schreck, Mosquito News, 41: 566-568 (1981)). […] The MED recorded was the lowest passing concentration level tested for the experimental compound. […] All human volunteers in the study provided informed consent to participate of a protocol approved by the University of Florida Human Use Institutional Review Board (IRB #636-2005).

The test system of assay [2] is An. albimanus. Described as above. It counts as in vivo, Anopheles albimanus. The note with it: Table 4; for An. albimanus Minimum Effective Dosage, Average: mean of 5 volunteers; for An. albimanus Minimum Effective Dosage, M4: subject M4; for An. albimanus Minimum Effective Dosage, M4 / An. albimanus Minimum Effective Dosage, M5 / An. albimanus Minimum Effective Dosage, M8 / An. albimanus Minimum Effective Dosage, M9 / An. albimanus Minimum Effective Dosage, M10: highest concentration 1.500 mg/cm^2; for An. albimanus Minimum Effective Dosage, M5: subject M5; for An. albimanus Minimum Effective Dosage, M8: subject M8; for An. albimanus Minimum Effective Dosage, M9: subject M9; for An. albimanus Minimum Effective Dosage, M10: subject M10.

The test system of assay [3] is Ae. aegypti. As to the kind of experiment: MED of varying molar ratios of 2 and DEET (synergistic activity). Type of assay: in vivo, Aedes aegypti. The note with it: Table 6, molar ratio 2:DEET; for Ae. aegypti Minimum Effective Dosage, Average: mean of 3 volunteers; for Ae. aegypti Minimum Effective Dosage, M4: subject M4; for Ae. aegypti Minimum Effective Dosage, M4 / Ae. aegypti Minimum Effective Dosage, M5 / Ae. aegypti Minimum Effective Dosage, M8: highest dose 4.0 mg/cm2; for Ae. aegypti Minimum Effective Dosage, M5: subject M5; for Ae. aegypti Minimum Effective Dosage, M8: subject M8. As to the method:
as §1, with “This solution was then serially diluted to obtain nine concentrations when applied on to the cloth patch: 1.5, 0.75, 0.375, 0.187, 0.094, 0.047, 0.023, 0.011, and 0.006 mg/cm^2.” left out
Compound 2 was also evaluated with DEET for synergistic activity. Test samples were prepared at varying molar ratios of DEET: 2 (1:0-1:[…]) and the MED values were evaluated (Table 6).

Setting [4] is: Table 1 preliminary assay, human subject M4, highest concentration 1.500 mg/cm^2.
Setting [5] is: Table 1 preliminary assay, human subject M5, highest concentration 1.500 mg/cm^2.
The mark [6] stands for this setting: Table 1 preliminary assay, human subject M8, highest concentration 1.500 mg/cm^2.
Setting [7] is: Table 1 preliminary assay, highest concentration 1.500 mg/cm^2.
Where [8] appears, read: Table 1 preliminary assay, mean of 5 volunteers.
Where [9] appears, read: Table 5, subject M4, highest dose 0.375 mg/cm2 (0.187 for 7).
The mark [10] stands for this setting: Table 5, subject M5, highest dose 0.375 mg/cm2 (0.187 for 7).
The mark [11] stands for this setting: Table 5, subject M8, highest dose 0.375 mg/cm2 (0.187 for 7).

As to `CC1(C)C=Cc2c(CO)cccc2O1` [Compound 2], in assay [1] (MED test on treated cloth), the “mosquito repellent activity against Ae. aegypti (in words)” value is “act as mosquito repellents”. In addition, the “Ae. aegypti Minimum Effective Dosage, M4” value in assay [1] (setting [4]) is given as 0.011 mg/cm^2; in assay [1] (setting [9]), 0.011 mg/cm^2; in assay [3] it was 0.0156 mg/cm^2. In addition, the “Ae. aegypti Minimum Effective Dosage, M5” value in assay [1] (setting [5]) is given as 0.011 mg/cm^2; in assay [1] (setting [10]), 0.011 mg/cm^2; in assay [3] it was 0.0313 mg/cm^2. The “Ae. aegypti Minimum Effective Dosage, M8” value in assay [1] (setting [6]) amounted to 0.011 mg/cm^2; in assay [1] (setting [11]) it was 0.006 mg/cm^2; in assay [3] it was 0.0313 mg/cm^2. In assay [1] (setting [7]), the “Ae. aegypti Minimum Effective Dosage, M9” value is reported as 0.094 mg/cm^2. For the same compound, the “Ae. aegypti Minimum Effective Dosage, M10” value in assay [1] (setting [7]) was found to be 0.047 mg/cm^2. Besides, the “Ae. aegypti Minimum Effective Dosage, Average” value in assay [1] (setting [8]) is 0.035 mg/cm^2; in assay [1] (Table 2, mean of 3 volunteers), 0.023 mg/cm^2; in assay [1] (Table 5, mean of 3 volunteers), 0.009 mg/cm^2; in assay [3] it was 0.0260 mg/cm^2. The “Ae. aegypti Minimum Effective Dosage, F1” value in assay [1] (Table 2, human subject F1, highest concentration 1.500 mg/cm^2) worked out at 0.023 mg/cm^2. Besides, in assay [1] (Table 2, human subject M1, highest concentration 1.500 mg/cm^2), the “Ae. aegypti Minimum Effective Dosage, M1” value is given as 0.023 mg/cm^2. Moreover, the “Ae. aegypti Minimum Effective Dosage, M2” value in assay [1] (Table 2, human subject M2, highest concentration 1.500 mg/cm^2) was determined as 0.023 mg/cm^2. Further, the “MED for ~100% Repellency (ED99), surface concentration” value in assay [1] (Table 7, treated cloth, female Aedes aegypti) was 0.011 mg/cm^2. In addition, the “An. albimanus Minimum Effective Dosage, Average” value in assay [2] is 0.234 mg/cm^2. In assay [2], the “An. albimanus Minimum Effective Dosage, M4” value came out at 0.047 mg/cm^2. Also, the “An. albimanus Minimum Effective Dosage, M5” value in assay [2] worked out at 0.375 mg/cm^2. Moreover, in assay [2], the “An. albimanus Minimum Effective Dosage, M8” value was 0.187 mg/cm^2. Moreover, the “An. albimanus Minimum Effective Dosage, M9” value in assay [2] is 0.375 mg/cm^2. Besides, the “An. albimanus Minimum Effective Dosage, M10” value in assay [2] was determined as 0.187 mg/cm^2.
On to `CCN(CC)C(=O)c1cccc(C)c1` [DEET, N,N-diethyl-3-methylbenzamide, reference compound], for which, in assay [1] (setting [4]), the “Ae. aegypti Minimum Effective Dosage, M4” value amounted to 0.111 mg/cm^2. Moreover, the “Ae. aegypti Minimum Effective Dosage, M5” value in assay [1] (setting [5]) came out at 0.023 mg/cm^2. Besides, the “Ae. aegypti Minimum Effective Dosage, M8” value in assay [1] (setting [6]) amounted to 0.023 mg/cm^2. Moreover, in assay [1] (setting [7]), the “Ae. aegypti Minimum Effective Dosage, M9” value was found to be 0.023 mg/cm^2 and the “Ae. aegypti Minimum Effective Dosage, M10” value is 0.023 mg/cm^2. In addition, in assay [1] (setting [8]), the “Ae. aegypti Minimum Effective Dosage, Average” value is 0.021 mg/cm^2. Also, the “Ae. aegypti Minimum Effective Dosage, Average” value in assay [1] (Table 5, mean of 3 volunteers) is reported as 0.015 mg/cm^2. Moreover, in assay [1] (setting [9]), the “Ae. aegypti Minimum Effective Dosage, M4” value stood at 0.011 mg/cm^2. Moreover, in assay [1] (setting [10]), the “Ae. aegypti Minimum Effective Dosage, M5” value was found to be 0.011 mg/cm^2. The “Ae. aegypti Minimum Effective Dosage, M8” value in assay [1] (setting [11]) was 0.023 mg/cm^2. Moreover, in assay [2], the “An. albimanus Minimum Effective Dosage, Average” value turned out to be 0.025 mg/cm^2; the “An. albimanus Minimum Effective Dosage, M4” value is 0.011 mg/cm^2; the “An. albimanus Minimum Effective Dosage, M5” value is 0.047 mg/cm^2; the “An. albimanus Minimum Effective Dosage, M8” value is 0.023 mg/cm^2. Besides, in assay [2], the “An. albimanus Minimum Effective Dosage, M9” value turned out to be 0.023 mg/cm^2 and the “An. albimanus Minimum Effective Dosage, M10” value stood at 0.023 mg/cm^2. Moreover, in assay [3], the “Ae. aegypti Minimum Effective Dosage, Average” value was 0.0313 mg/cm^2; the “Ae. aegypti Minimum Effective Dosage, M4” value was 0.0313 mg/cm^2; the “Ae. aegypti Minimum Effective Dosage, M5” value worked out at 0.0313 mg/cm^2; the “Ae. aegypti Minimum Effective Dosage, M8” value worked out at 0.0313 mg/cm^2.
